Measured values: PubChem BioAssay (NCI)
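Tested at 5 concentrations; 48 h exposure; 96-well plates; endpoints linearly interpolated, else capped at highest concentration. Abbreviation: GI50, concentration required for 50% inhibition of growth. TGI denotes the concentration required for complete inhibition of growth.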

What was measured:
Assay in all cases: inhibition of tumour cell growth, NCI panel, 48 h
HS 578T breast = test system: HS 578T breast
SF-268 CNS = test system: SF-268 CNS
NCI-H226 lung = test system: NCI-H226 lung
UACC-257 melanoma = test system: UACC-257 melanoma
HCC-2998 colon = test system: HCC-2998 colon
RPMI-8226 leukemia = test system: RPMI-8226 leukemia
A498 renal = test system: A498 renal
786-0 renal = test system: 786-0 renal
SK-MEL-2 melanoma = test system: SK-MEL-2 melanoma
HT29 colon = test system: HT29 colon
SNB-19 CNS = test system: SNB-19 CNS
SF-539 CNS = test system: SF-539 CNS
SK-MEL-5 melanoma = test system: SK-MEL-5 melanoma
UACC-62 melanoma = test system: UACC-62 melanoma
OVCAR-4 ovarian = test system: OVCAR-4 ovarian
ACHN renal = test system: ACHN renal
MOLT-4 leukemia = test system: MOLT-4 leukemia
MDA-MB-231 breast = test system: MDA-MB-231 breast
SK-OV-3 ovarian = test system: SK-OV-3 ovarian
MDA-MB-435 = test system: MDA-MB-435
MDA-MB-468 breast = test system: MDA-MB-468 breast
U251 CNS = test system: U251 CNS
TK-10 renal = test system: TK-10 renal
PC-3 prostate = test system: PC-3 prostate
COLO 205 colon = test system: COLO 205 colon
BT-549 breast = test system: BT-549 breast
SW-620 colon = test system: SW-620 colon
SF-295 CNS = test system: SF-295 CNS
SNB-75 CNS = test system: SNB-75 CNS
CAKI-1 renal = test system: CAKI-1 renal
OVCAR-8 ovarian = test system: OVCAR-8 ovarian
RXF 393 renal = test system: RXF 393 renal
EKVX NSCLC = test system: EKVX NSCLC
OVCAR-5 ovarian = test system: OVCAR-5 ovarian
KM12 colon = test system: KM12 colon
CCRF-CEM leukemia = test system: CCRF-CEM leukemia
SR leukemia = test system: SR leukemia
SK-MEL-28 melanoma = test system: SK-MEL-28 melanoma
HOP-62 NSCLC = test system: HOP-62 NSCLC
HCT-116 colon = test system: HCT-116 colon
K-562 leukemia = test system: K-562 leukemia
A549 NSCLC = test system: A549 NSCLC
SN12C renal = test system: SN12C renal
T-47D breast = test system: T-47D breast
LOX IMVI melanoma = test system: LOX IMVI melanoma
HCT-15 colon = test system: HCT-15 colon
DU-145 prostate = test system: DU-145 prostate
NCI-H460 lung = test system: NCI-H460 lung
HL-60(TB) leukemia = test system: HL-60(TB) leukemia
NCI-H23 lung = test system: NCI-H23 lung
UO-31 renal = test system: UO-31 renal
OVCAR-3 ovarian = test system: OVCAR-3 ovarian
NCI-H522 lung = test system: NCI-H522 lung
IGROV1 ovarian = test system: IGROV1 ovarian
HOP-92 NSCLC = test system: HOP-92 NSCLC
M14 melanoma = test system: M14 melanoma
MALME-3M melanoma = test system: MALME-3M melanoma
MCF7 breast = test system: MCF7 breast

CC1=C(C(=O)Nc2ccccc2)C(c2ccc3ccccc3c2)n2c(nc3ccccc32)N1 (stereo unspecified)
GI50 (HS 578T breast): 15.6 µM
TGI (HS 578T breast): 57.2 µM
GI50 (SF-268 CNS): 27.3 µM
TGI (SF-268 CNS): > 100 µM
GI50 (NCI-H226 lung): 12.9 µM
TGI (NCI-H226 lung): 34.8 µM
GI50 (UACC-257 melanoma): 67.1 µM
TGI (UACC-257 melanoma): > 100 µM
GI50 (HCC-2998 colon): 34 µM
TGI (HCC-2998 colon): > 100 µM
GI50 (RPMI-8226 leukemia): 20 µM
TGI (RPMI-8226 leukemia): > 100 µM
GI50 (A498 renal): 23.3 µM
TGI (A498 renal): 63.3 µM
GI50 (786-0 renal): 19.6 µM
TGI (786-0 renal): 38.6 µM
GI50 (SK-MEL-2 melanoma): 22.1 µM
TGI (SK-MEL-2 melanoma): 71.5 µM
GI50 (HT29 colon): 24.4 µM
TGI (HT29 colon): 69.2 µM
GI50 (SNB-19 CNS): 22.7 µM
TGI (SNB-19 CNS): 59.2 µM
GI50 (SF-539 CNS): 15.5 µM
TGI (SF-539 CNS): 30.4 µM
GI50 (SK-MEL-5 melanoma): 58.6 µM
TGI (SK-MEL-5 melanoma): > 100 µM
GI50 (UACC-62 melanoma): 20.3 µM
TGI (UACC-62 melanoma): 63.5 µM
GI50 (OVCAR-4 ovarian): 15.4 µM
TGI (OVCAR-4 ovarian): 45.3 µM
GI50 (ACHN renal): 17 µM
TGI (ACHN renal): 35.3 µM
GI50 (MOLT-4 leukemia): 5.71 µM
TGI (MOLT-4 leukemia): 72 µM
GI50 (MDA-MB-231 breast): 20.4 µM
TGI (MDA-MB-231 breast): 41.5 µM
GI50 (SK-OV-3 ovarian): 21.5 µM
TGI (SK-OV-3 ovarian): 85.7 µM
GI50 (MDA-MB-435): 41.6 µM
TGI (MDA-MB-435): > 100 µM
GI50 (MDA-MB-468 breast): 14.1 µM
TGI (MDA-MB-468 breast): 35.1 µM
GI50 (U251 CNS): 16.3 µM
TGI (U251 CNS): 32.5 µM
GI50 (TK-10 renal): 19.3 µM
TGI (TK-10 renal): 48.6 µM
GI50 (PC-3 prostate): 12.4 µM
TGI (PC-3 prostate): 31.4 µM
GI50 (COLO 205 colon): 26.5 µM
TGI (COLO 205 colon): > 100 µM
GI50 (BT-549 breast): 28 µM
TGI (BT-549 breast): > 100 µM
GI50 (SW-620 colon): 22.3 µM
TGI (SW-620 colon): > 100 µM
GI50 (SF-295 CNS): 17 µM
TGI (SF-295 CNS): 37.6 µM
GI50 (SNB-75 CNS): 10.4 µM
TGI (SNB-75 CNS): 30.5 µM
GI50 (CAKI-1 renal): 19.2 µM
TGI (CAKI-1 renal): 56.3 µM
GI50 (OVCAR-8 ovarian): 16.9 µM
TGI (OVCAR-8 ovarian): 35.9 µM
GI50 (RXF 393 renal): 11.8 µM
TGI (RXF 393 renal): 40.5 µM
GI50 (EKVX NSCLC): 16 µM
TGI (EKVX NSCLC): 46.2 µM
GI50 (OVCAR-5 ovarian): 28 µM
TGI (OVCAR-5 ovarian): 95.6 µM
GI50 (KM12 colon): 31.9 µM
TGI (KM12 colon): > 100 µM
GI50 (CCRF-CEM leukemia): 8.63 µM
TGI (CCRF-CEM leukemia): > 100 µM
GI50 (SR leukemia): 22 µM
TGI (SR leukemia): > 100 µM
GI50 (SK-MEL-28 melanoma): 21.2 µM
TGI (SK-MEL-28 melanoma): 56.4 µM
GI50 (HOP-62 NSCLC): 15.4 µM
TGI (HOP-62 NSCLC): 31.6 µM
GI50 (HCT-116 colon): 13.4 µM
TGI (HCT-116 colon): 33.1 µM
GI50 (K-562 leukemia): 7.06 µM
TGI (K-562 leukemia): > 100 µM
GI50 (A549 NSCLC): 13.5 µM
TGI (A549 NSCLC): 33.2 µM
GI50 (SN12C renal): 17.1 µM
TGI (SN12C renal): 40.2 µM
GI50 (T-47D breast): 58.5 µM
TGI (T-47D breast): > 100 µM
GI50 (LOX IMVI melanoma): 14.3 µM
TGI (LOX IMVI melanoma): 31 µM
GI50 (HCT-15 colon): 16.4 µM
TGI (HCT-15 colon): 56.2 µM
GI50 (DU-145 prostate): 18.2 µM
TGI (DU-145 prostate): 62.3 µM
GI50 (NCI-H460 lung): 15 µM
TGI (NCI-H460 lung): 33.6 µM
GI50 (HL-60(TB) leukemia): 13.7 µM
TGI (HL-60(TB) leukemia): > 100 µM
GI50 (NCI-H23 lung): 27.7 µM
TGI (NCI-H23 lung): > 100 µM
GI50 (UO-31 renal): 12.6 µM
TGI (UO-31 renal): 39.9 µM
GI50 (OVCAR-3 ovarian): 16.4 µM
TGI (OVCAR-3 ovarian): 31.9 µM
GI50 (NCI-H522 lung): 18.1 µM
TGI (NCI-H522 lung): 45.7 µM
GI50 (IGROV1 ovarian): 25.8 µM
TGI (IGROV1 ovarian): 85.7 µM
GI50 (HOP-92 NSCLC): 15.3 µM
TGI (HOP-92 NSCLC): 36.5 µM
GI50 (M14 melanoma): 33.4 µM
TGI (M14 melanoma): > 100 µM
GI50 (MALME-3M melanoma): 18.3 µM
TGI (MALME-3M melanoma): 40.3 µM
GI50 (MCF7 breast): 9.12 µM
TGI (MCF7 breast): 27.7 µM
